Experimental findings from PubChem BioAssay (NCI) are described below.

“And” between values parts separate entries of the source, which are not always exact repeats. Equal values may be shown once.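 Grown in 96-well plates, cells were treated for 48 hours with each compound at five concentrations. Insufficient inhibition: endpoint recorded as highest concentration tested. GI50: concentration for 50% inhibition of growth. The concentration for full growth arrest is given as TGI.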

Common to all, as to test: DTP human tumour cell line panel, 48 h
Test [1] relates to DMS 273 small cell lung.
Test [2] relates to M19-MEL melanoma.
Test [3] concerns DMS 114 small cell lung.
The subject of test [4] is LXFL 529 NSCLC.
The subject of test [5] is KM20L2 colon.
In test [6] the test system is SNB-78 CNS.
For test [7], the system named is HOP-18 NSCLC.
For test [8], the system named is MDA-N.

`CCOC(=O)[C@H]1CSC[C@@H](C(=O)OC)N1`: the TGI in test [1], in test [2], in test [3] and in test [4] was over 100 µM in each case.
As for `COC(=O)[C@@]1(O)CC(C)C=C1C=O` (some centres not stated), the TGI in test [1] is 34.6 µM; in test [5], over 100 µM; in test [6], over 100 µM; in test [7] it was over 100 µM; in test [2], over 100 µM; in test [3], 89.7 µM. For the same compound, the TGI in test [4] was over 100 µM.
For the compound `Cc1cc(Oc2cnc(=O)[nH]c2)cs1`, the concentration for total growth inhibition (TGI) in test [8] is over 100 µM.
As to `CC(C)N1CCC2(CC1)NNc1ncccc1-n1cccc12`, the total growth inhibition concentration (TGI) in test [1], in test [6], in test [7], in test [2] and in test [3] was over 100 µM in each case.
For `O=C(Nc1ccc2[nH]c(C(=O)N3CC(CCl)c4c3cc([N+](=O)[O-])c3ccccc43)cc2c1)c1cc2ccccc2o1` (configuration not stated), in test [8], the GI50 was over 1.1 mM and the TGI is over 1100 µM.
For `CC(=O)OC(C)(C)/C=C/C(=O)[C@](C)(O)[C@H]1[C@H](O)C[C@@]2(C)[C@@H]3CC=C4[C@@H](C[C@H](O)C(=O)C4(C)C)[C@]3(CO)C(=O)C[C@]12C`, the GI50 in test [1] is 324 nM; in test [6] it was 269 nM; in test [7], 216 nM; in test [2], 298 nM; in test [3], 248 nM; in test [4] it was 90 nM. Also, the TGI is 0.771 µM in test [1]; 0.983 µM and 3.92 µM in test [6]; 0.646 µM and 1.32 µM in test [7]; 29.9 µM in test [2]; 15.3 µM in test [3]; 6.62 µM in test [4].
Take `O=c1nc(NC(c2ccccc2)(c2ccccc2)c2ccccc2)ccn1CCO`: the TGI in test [5], in test [6], in test [7], in test [3] and in test [4] was over 100 µM each time.
Consider `CCO/C=C1\N=C(C(Cl)c2ccccc2)OC1=O` (configuration not stated), for which the TGI in test [1], in test [5], in test [6], in test [2], in test [3] and in test [4] was over 100 µM throughout.
`CC(=O)OCc1ccc(O)c(C=O)c1` returned a TGI in test [8] of over 100 µM.
Turning to `O=C1C2CC=CCC2C(=O)C12CCc1ccccc12` (configuration not stated), the TGI in test [1], in test [5], in test [6], in test [7], in test [2] and in test [4] was over 100 µM each time.
`COc1cc([C@H]2c3cc4c(cc3[C@H](NCc3ccc([N+](=O)[O-])cc3)C3COC(=O)[C@H]32)OCO4)cc(OC)c1O` (some centres not stated): the TGI in test [1] was over 100 µM; in test [5] it was 14.4 µM; in test [6], over 100 µM; in test [2], over 100 µM; in test [3] it was over 25.3 µM; in test [4] it was over 76 µM.
As for `CCCCCCCC(=O)OCC1OC(n2cc(F)c(=O)[nH]c2=O)C(NC(=O)OCc2ccccc2)C(O)C1O` (configuration not stated), the total growth inhibition concentration (TGI) in test [1], in test [5], in test [6], in test [2], in test [3] and in test [4] was over 100 µM in each case.
For the compound `COc1cc(C=O)c(-c2cc3c(cc2C2(C)OCCS2)OCO3)c(OC)c1OC` (configuration not stated), the TGI is 36.8 µM in test [1]; 9.17 µM in test [5]; over 239 µM in test [6]; 71.8 µM in test [3]; 54 µM in test [4].
In the case of `COC(=O)c1ccc(NC(=O)c2cc(OC)c(OC)c(OC)c2)cc1`, the TGI is over 100 µM in test [1]; over 100 µM in test [5]; over 100 µM in test [7]; over 100 µM in test [2]; 0.706 µM in test [3]; over 100 µM in test [4].
In test [8], `CCn1c2ccc(C(=O)CCCN(C)C)cc2c2cc(C(=O)CCCN(C)C)ccc21` gave a TGI of 6.8 µM.
Take `NC(CC(=O)Nc1ccc(Cl)cc1)=Nc1ccccc1`: the TGI in test [1], in test [5], in test [6], in test [2] and in test [4] was over 100 µM each time.
Regarding `CCCCN=C(NC#N)N(Cc1ccccc1)Cc1ccccc1`, the TGI in test [1] was 37.1 µM; in test [5], 52.4 µM; in test [6], over 100 µM; in test [7], over 100 µM; in test [2] it was 35.8 µM; in test [4] it was 32.8 µM.
`N#C/C(=C\Nc1ccccn1)C(=O)c1ccco1` had a TGI in test [8] of over 100 µM.
Same read-out and setting: in the case of `O=C(O)C1C(=O)Oc2c(cccc2[N+](=O)[O-])C1O` (configuration not stated) it was over 100 µM.
Regarding `Cc1ccc(C(=O)N2c3ccccc3N(C)n3cccc3C2CC(=O)O)cc1` (configuration not stated), the TGI in test [1], in test [5], in test [6], in test [2], in test [3] and in test [4] was over 100 µM each time.

A word on the TGI: it is the concentration giving total growth inhibition. Low readings indicate more potent growth arrest, high ones less potent growth arrest. One may read the GI50 as the concentration that inhibits growth by half.
